{
  "source": "patent US8912234B2",
  "about": "“Composition containing resveratrol and/or derivatives thereof and plant oil, process for producing said composition, nutraceutical and/or pharmaceutical product, and method for enhancing the potential of resveratrol” (UNIAO Brasileria de Educacao e Assistencia—Mantenedora da …, priority 2009, dated 2014)",
  "key": {"edema caused by CFA": {"test_system": "edema caused by CFA", "assay": "Model of polyarthritis induced by CFA in rats", "assay_type": "in vivo, male Wistar rats", "settings": "100 mg/kg oral, twice a day for 8 days, from day 14 to 21 after CFA; rats (FIG. 7)"}, "[1]": {"test_system": "depressive behavior associated with the chronic inflammation caused by CFA", "assay": "Depressive behavior associated with chronic inflammation in mice (tail suspension, time of immobility)", "assay_type": "in vivo, male Swiss mice", "settings": "100 mg/kg oral, 1x a day for 7 days, starting 1 week after CFA; immobility over 6 min; mice (FIG. 9)", "method": "(§1) To perform the experiments, male Wistar rats (180 to 200 g) or male Swiss mice (25 to 30 g) were used, coming from the animal house of the Federal University of Pelotas (UFPEL; Pelotas, RS). We used 5 to 8 animals per group. The animals were kept in Room 108, located in Block E, of the Vivarium of Building 12, of the PUCRS, on ventilated shelves outfitted with incoming and outgoing air filters (brand Alesco), with controlled temperature (22±1° C.) and light/dark cycle of 12 h (lights turned on at 7:00 a.m.; lights turned off at 7:00 p.m.). Within the shelves, the animals were kept in cages suitable for rodents, filled with pine shavings (changed three times a week). The animals received pelletized ration (brand Nuvilab) and filtered water (filter brand Jojaco) ad libitum. The experiments were conducted in the Applied Pharmacology Laboratory I, located in Block C, Building 12, of the PUCRS. During the experimental procedures, the laboratory temperature was maintained at 22±1° C. […] In this series of experiments, the depressive behavior associated with chronic inflammation in mice was evaluated. […] The increase in volume was measured by plethysmometer, two weeks after the application of the CFA. The difference between the volume of the right and left paws was quantified (in ml) and taken as an indicator of edema. […] The time of immobility was measured for a period of 6 min. […]"}, "[2]": {"test_system": "edema of the paw caused by carrageenan", "assay": "Model of acute inflammation by carrageenan in the paw of rats", "assay_type": "in vivo, male Wistar rats", "settings": "100 mg/kg oral; for inhibition of the edema caused by carrageenan: therapeutic, 120 min after carrageenan, rats (FIG. 5)"}, "[3]": {"test_system": "edematogenic response caused by CFA", "assay": "Paw edema of chronic inflammation induced by CFA in mice", "assay_type": "in vivo, male Swiss mice", "settings": "100 mg/kg oral, 1x a day for 7 days, starting 1 week after CFA; mice (FIG. 9)", "method": "as §1"}},
  "data": [
    {"smiles": "Oc1ccc(C=Cc2cc(O)cc(O)c2)cc1", "note": "[resveratrol, 3,5,4′-trihydroxystilbene]", "values": [
      {"measurement": "inhibition of the formation of edema caused by CFA", "setting": "edema caused by CFA", "value": "17±5", "unit": "%"},
      {"measurement": "depressive behavior (time of immobility)", "setting": "[1]", "value": "expressively reduced"},
      {"measurement": "inhibition of the edema of the paw caused by carrageenan", "setting": "[2]; preventive, 30 min prior to carrageenan, vs saline control, rats (FIG. 4)", "value": "31±7", "unit": "%"},
      {"measurement": "inhibition of the edema caused by carrageenan", "setting": "[2]; at 180 min", "value": "35±8", "unit": "%"},
      {"measurement": "inhibition of the edema caused by carrageenan", "setting": "[2]; at 240 min", "value": "45±9", "unit": "%"},
      {"measurement": "percentage of reduction of the edematogenic response caused by CFA", "setting": "[3]", "value": "42±4", "unit": "%"}
    ]}
  ]
}
